Source: patent publication US20240358693A1, “METHODS OF TREATING PAIN” (Aisa Pharma, Inc., priority 2023, published 2024)

Tested on: participants with SSc-RP
Test: Scleroderma Health Assessment Questionnaire (SHAQ): disability indices and visual analog scales
Format: in vivo, human
How it was run: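 Participants with SSc-RP completed the SHAQ at screening and each in-clinic visit. Standard and alternative disability indices (eight categories, 0–3; standard adjusts for aids/assistance) plus Raynaud's VAS on interference over the past 7 days. Reported as absolute change from baseline to end of each dosing period.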

[1] = Baseline, Tadalafil 5 mg (N = 5), Patients with Diagnosis of SSc, PP Population Part A
[2] = Day 12, Modified ITT, Part A, dose Cilnidipine 10 mg, Tadalafil 5 mg, or 10 mg + 5 mg
[3] = Day 12, Tadalafil 5 mg (N = 5), Patients with Diagnosis of SSc, PP Population Part A
[4] = Day 12, mITT Part A, SSc patients, cilnidipine 10 mg and/or tadalafil 5 mg as in the arm
[5] = Day 12, mITT Part A, SSc patients, cilnidipine 10 mg and/or tadalafil 5 mg as in the arm, subject 01-110 score excluded
[6] = In-Clinic Visit (Day 12), Tadalafil 5 mg (N = 5), Patients with Diagnosis of SSc, PP Population Part A
[7] = Modified ITT, Part A, dose Cilnidipine 10 mg, Tadalafil 5 mg, or 10 mg + 5 mg

SMILES: CN1CC(=O)N2[C@H](c3ccc4c(c3)OCO4)c3[nH]c4ccccc4c3C[C@@H]2C1=O [Tadalafil, tadalafil]
- SHAQ Alternative Disability Index, Mean [1]: 0.450
- SHAQ Alternative Disability Index, Median [1]: 0.375
- SHAQ Standard Disability Index, Mean [1]: 0.550
- SHAQ Standard Disability Index, Median [1]: 0.500
- SHAQ Alternative Disability Index, Change from Baseline, Mean [2]: −0.094
- SHAQ Alternative Disability Index, Change from Baseline, Median [2]: −0.125
- SHAQ Alternative Disability Index, Percent Change from Baseline, Mean [2]: −43.70%
- SHAQ Alternative Disability Index, Percent Change from Baseline, Median [2]: −20.00%
- SHAQ Finger Ulcers, Change from Baseline, Mean [2]: 0.250
- SHAQ Finger Ulcers, Change from Baseline, Median [2]: 0.000
- SHAQ Finger Ulcers, Percent Change from Baseline, Mean [2]: 6.10%
- SHAQ Finger Ulcers, Percent Change from Baseline, Median [2]: 6.10%
- SHAQ Standard Disability Index, Change from Baseline, Mean [2]: −0.063
- SHAQ Standard Disability Index, Change from Baseline, Median [2]: −0.063
- SHAQ Standard Disability Index, Percent Change from Baseline, Mean [2]: −9.26%
- SHAQ Standard Disability Index, Percent Change from Baseline, Median [2]: −11.11%
- SHAQ Visual Analog Scale-Breathing Problems, Change from Baseline, Mean [2]: 0.500
- SHAQ Visual Analog Scale-Breathing Problems, Change from Baseline, Median [2]: 1.050
- SHAQ Visual Analog Scale-Breathing Problems, Percent Change from Baseline, Mean [2]: −2.66%
- SHAQ Visual Analog Scale-Breathing Problems, Percent Change from Baseline, Median [2]: 29.58%
- SHAQ Visual Analog Scale-Intestinal Problems, Change from Baseline, Mean [2]: −0.125
- SHAQ Visual Analog Scale-Intestinal Problems, Change from Baseline, Median [2]: 0.000
- SHAQ Visual Analog Scale-Intestinal Problems, Percent Change from Baseline, Mean [2]: −6.92%
- SHAQ Visual Analog Scale-Intestinal Problems, Percent Change from Baseline, Median [2]: 0.00%
- SHAQ Visual Analog Scale-Pain, Change from Baseline, Mean [2]: 1.000
- SHAQ Visual Analog Scale-Pain, Change from Baseline, Median [2]: 0.800
- SHAQ Visual Analog Scale-Pain, Percent Change from Baseline, Mean [2]: 31.35%
- SHAQ Visual Analog Scale-Pain, Percent Change from Baseline, Median [2]: 10.81%
- SHAQ Visual Analog Scale-Raynaud's, Change from Baseline, Mean [2]: −0.825
- SHAQ Visual Analog Scale-Raynaud's, Change from Baseline, Median [2]: −0.500
- SHAQ Visual Analog Scale-Raynaud's, Percent Change from Baseline, Mean [2]: −19.71%
- SHAQ Visual Analog Scale-Raynaud's, Percent Change from Baseline, Median [2]: −20.67%
- SHAQ Alternative Disability Index, Change from Baseline, Mean [3]: −0.094
- SHAQ Alternative Disability Index, Change from Baseline, Median [3]: −0.125
- SHAQ Alternative Disability Index, Percent Change from Baseline, Mean [3]: −43.70%
- SHAQ Alternative Disability Index, Percent Change from Baseline, Median [3]: −20.00%
- SHAQ Standard Disability Index, Change from Baseline, Mean [3]: −0.063
- SHAQ Standard Disability Index, Change from Baseline, Median [3]: −0.063
- SHAQ Standard Disability Index, Percent Change from Baseline, Mean [3]: −9.26%
- SHAQ Standard Disability Index, Percent Change from Baseline, Median [3]: −11.11%
- SHAQ Alternative Disability Index, Change from Baseline, Mean [4]: −0.094
- SHAQ Alternative Disability Index, Change from Baseline, Median [4]: −0.125
- SHAQ Alternative Disability Index, In-Clinic Visit (Day 12), Mean [4]: 0.375
- SHAQ Alternative Disability Index, In-Clinic Visit (Day 12), Median [4]: 0.250
- SHAQ Alternative Disability Index, Percent Change from Baseline, Mean [4]: −43.70%
- SHAQ Alternative Disability Index, Percent Change from Baseline, Median [4]: −20.00%
- SHAQ Visual Analogue Scale - Finger Ulcers, Change from Baseline, Mean [4]: 0.250
- SHAQ Visual Analogue Scale - Finger Ulcers, Change from Baseline, Median [4]: 0.000
- SHAQ Visual Analogue Scale - Finger Ulcers, In-Clinic Visit (Day 12), Mean [4]: 2.325
- SHAQ Visual Analogue Scale - Finger Ulcers, In-Clinic Visit (Day 12), Median [4]: 0.050
- SHAQ Visual Analogue Scale - Finger Ulcers, Percent Change from Baseline, Mean [4]: 6.10%
- SHAQ Visual Analogue Scale - Finger Ulcers, Percent Change from Baseline, Median [4]: 6.10%
- SHAQ Visual Analogue Scale - Intestinal Problems, Change from Baseline, Mean [4]: −0.125
- SHAQ Visual Analogue Scale - Intestinal Problems, Change from Baseline, Median [4]: 0.000
- SHAQ Visual Analogue Scale - Intestinal Problems, In-Clinic Visit (Day 12), Mean [4]: 3.025
- SHAQ Visual Analogue Scale - Intestinal Problems, In-Clinic Visit (Day 12), Median [4]: 1.450
- SHAQ Visual Analogue Scale - Intestinal Problems, Percent Change from Baseline, Mean [4]: −6.92%
- SHAQ Visual Analogue Scale - Intestinal Problems, Percent Change from Baseline, Median [4]: 0.00%
- SHAQ Visual Analogue Scale - Overall Disease Severity, Change from Baseline, Mean [4]: 0.625
- SHAQ Visual Analogue Scale - Overall Disease Severity, Change from Baseline, Median [4]: 0.700
- SHAQ Visual Analogue Scale - Overall Disease Severity, In-Clinic Visit (Day 12), Mean [4]: 5.600
- SHAQ Visual Analogue Scale - Overall Disease Severity, In-Clinic Visit (Day 12), Median [4]: 6.550
- SHAQ Visual Analogue Scale - Overall Disease Severity, Percent Change from Baseline, Mean [4]: 32.49%
- SHAQ Visual Analogue Scale - Overall Disease Severity, Percent Change from Baseline, Median [4]: 26.79%
- SHAQ Visual Analogue Scale - Pain, Change from Baseline, Mean [4]: 1.000
- SHAQ Visual Analogue Scale - Pain, Change from Baseline, Median [4]: 0.800
- SHAQ Visual Analogue Scale - Pain, In-Clinic Visit (Day 12), Mean [4]: 5.300
- SHAQ Visual Analogue Scale - Pain, In-Clinic Visit (Day 12), Median [4]: 5.850
- SHAQ Visual Analogue Scale - Pain, Percent Change from Baseline, Mean [4]: 31.35%
- SHAQ Visual Analogue Scale - Pain, Percent Change from Baseline, Median [4]: 10.81%
- SHAQ Visual Analogue Scale - Raynaud's, Change from Baseline, Mean [4]: −0.825
- SHAQ Visual Analogue Scale - Raynaud's, Change from Baseline, Median [4]: −0.500
- SHAQ Visual Analogue Scale - Raynaud's, In-Clinic Visit (Day 12), Mean [4]: 4.950
- SHAQ Visual Analogue Scale - Raynaud's, In-Clinic Visit (Day 12), Median [4]: 5.200
- SHAQ Visual Analogue Scale - Raynaud's, Percent Change from Baseline, Mean [4]: −19.71%
- SHAQ Visual Analogue Scale - Raynaud's, Percent Change from Baseline, Median [4]: −20.67%
- SHAQ Visual Analogue Scale - Breathing Problems, Change from Baseline, Mean [5]: 0.500
- SHAQ Visual Analogue Scale - Breathing Problems, Change from Baseline, Median [5]: 1.050
- SHAQ Visual Analogue Scale - Breathing Problems, In-Clinic Visit (Day 12), Mean [5]: 4.300
- SHAQ Visual Analogue Scale - Breathing Problems, In-Clinic Visit (Day 12), Median [5]: 4.000
- SHAQ Visual Analogue Scale - Breathing Problems, Percent Change from Baseline, Mean [5]: −2.66%
- SHAQ Visual Analogue Scale - Breathing Problems, Percent Change from Baseline, Median [5]: 29.58%
- SHAQ Alternative Disability Index, Mean [6]: 0.375
- SHAQ Alternative Disability Index, Median [6]: 0.250
- SHAQ Standard Disability Index, Mean [6]: 0.531
- SHAQ Standard Disability Index, Median [6]: 0.563
- SHAQ Finger Ulcers, Baseline, Mean [7]: 2.075
- SHAQ Finger Ulcers, Baseline, Median [7]: 0.050
- SHAQ Finger Ulcers, In Clinic Visit (Day 12), Mean [7]: 2.325
- SHAQ Finger Ulcers, In Clinic Visit (Day 12), Median [7]: 0.050
- SHAQ Standard disability index, Baseline, Mean [7]: 0.594
- SHAQ Standard disability index, Baseline, Median [7]: 0.625
- SHAQ Standard disability index, In Clinic Visit (Day 12), Mean [7]: 0.531
- SHAQ Standard disability index, In Clinic Visit (Day 12), Median [7]: 0.563
- SHAQ Visual Analog Scale-Breathing Problems, Baseline, Mean [7]: 3.800
- SHAQ Visual Analog Scale-Breathing Problems, Baseline, Median [7]: 4.050
- SHAQ Visual Analog Scale-Breathing Problems, In Clinic Visit (Day 12), Mean [7]: 4.300
- SHAQ Visual Analog Scale-Breathing Problems, In Clinic Visit (Day 12), Median [7]: 4.000
- SHAQ Visual Analog Scale-Intestinal Problems, Baseline, Mean [7]: 3.150
- SHAQ Visual Analog Scale-Intestinal Problems, Baseline, Median [7]: 2.600
- SHAQ Visual Analog Scale-Intestinal Problems, In Clinic Visit (Day 12), Mean [7]: 3.025
- SHAQ Visual Analog Scale-Intestinal Problems, In Clinic Visit (Day 12), Median [7]: 1.450
- SHAQ Visual Analog Scale-Pain, Baseline, Mean [7]: 5.967
- SHAQ Visual Analog Scale-Pain, Baseline, Median [7]: 7.400
- SHAQ Visual Analog Scale-Pain, In Clinic Visit (Day 12), Mean [7]: 5.300
- SHAQ Visual Analog Scale-Pain, In Clinic Visit (Day 12), Median [7]: 5.850
- SHAQ Visual Analog Scale-Raynaud's, Baseline, Mean [7]: 5.775
- SHAQ Visual Analog Scale-Raynaud's, Baseline, Median [7]: 6.400
- SHAQ Visual Analog Scale-Raynaud's, In Clinic Visit (Day 12), Mean [7]: 4.950
- SHAQ Visual Analog Scale-Raynaud's, In Clinic Visit (Day 12), Median [7]: 5.200
- SHAQ alternative disability index, Baseline, Mean [7]: 0.469
- SHAQ alternative disability index, Baseline, Median [7]: 0.375
